Experiments:
[1] = tested on: T1, β-glucosidase from the digestive fluid of Rhynchophorus palmarum larvae; assay: glucose release by glucose oxidase-peroxidase, Lineweaver-Burk; format: biochemical; settings: 100 mM acetate buffer pH 5.0, 37°C
T1 construct: gene cellobiase; native, purified from larval digestive fluid (Abidjan, Côte d'Ivoire); monomer, 58 kDa SDS-PAGE, 60 kDa gel filtration
From the text: glucose release by glucose oxidase-peroxidase, Lineweaver-Burk on β-glucosidase from the digestive fluid of Rhynchophorus palmarum larvae

[2] = tested on: T1, β-glucosidase from the digestive fluid of Rhynchophorus palmarum larvae; assay: p-nitrophenol release at […] nm, Lineweaver-Burk; format: biochemical; settings: 100 mM acetate buffer pH 5.0, 37°C

Compound: OC[C@H]1O[C@@H](O[C@H]2[C@H](O)[C@@H](O)C(O)O[C@@H]2CO)[C@H](O)[C@@H](O)[C@@H]1O (some centres unmarked) [cellobiose]
- Km [1]: 310 µM

Compound: O=[N+]([O-])c1ccc(O[C@@H]2O[C@H](CO)[C@@H](O)[C@H](O)[C@H]2O)cc1 [p-nitrophenyl-β-D-glucopyranoside]
- Km [2]: 250 µM

Source: PMC3011871, “Purification and Biochemical Characterization of a Specific β-Glucosidase from the Digestive Fluid of Larvae of the Palm Weevil, Rhynchophorus palmarum” (Journal of Insect Science, 2009)
